Experimental data reported in publication PMC10112268, “Inhibition of Human Coronaviruses by Combinations of Host-Targeted and Direct-Acting Antivirals” (Antimicrobial Agents and Chemotherapy, 2023).
Like-named read-outs stand apart in the source and are kept apart here.

How the values were obtained:
[1] = system: SARS-CoV-2 isolate MAD6 (Wuhan-Hu-1 strain); assay: Virus yield inhibition in infected Calu3 2B4 cells, plaque assay on Vero E6; assay type: cell-based; details: for IC50 / SARS-CoV-2 isolate MAD6 titers: 24 hpi; for IC50: read-out: IC50, virus yield; for SARS-CoV-2 titers: at 100 μM, Fig. 3, no drug 3.±0.1 × 10^5; for SARS-CoV-2 isolate MAD6 titers: no drug 3.4 ± 1 × 10^5
HCoV-229E-GFP [2] = assay: microbe, parasite or virus in culture; assay type: cell-based; details: for IC50: Human coronavirus 229E
HCoV-OC43 [3] = assay: microbe, parasite or virus in culture; assay type: cell-based
HCoV-229E-GFP [4] = assay type: cell-based; details: no drug 3.5 ± 0.6 × 10^6
HCoV-OC43 [5] = assay type: cell-based; details: no drug 3.2 ± 0.2 × 10^6
[6] = system: SARS-CoV-2 isolate 39896362_AG (omicron strain); assay: microbe, parasite or virus in culture; assay type: cell-based; details: for IC50: Severe acute respiratory syndrome coronavirus 2, Vero C1008, omicron strain, AV from 1 h before adsorption, read-out: IC50, virus yield; for IC50 / SARS-CoV-2 isolate 39896362_AG titers: Fig. 1; for SARS-CoV-2 isolate 39896362_AG titers: no drug 1 ± 0.1 × 10^5
in vitro [7] = details: African green monkey
in vitro [8] = details: human
SARS-CoV-2 (MAD6) = assay: Drug combination (synergy) study, virus yield in Calu3 2B4, CompuSyn; assay type: cell-based; details: for SARS-CoV-2 titers: no drug 3.2 ± 0.2 × 10^5; for average DRI: for the named drug over its combinations, at Fa = 0.5 to 0.95
in vitro [9] = details: human, CC50 (MTT assay), Huh-7
in vitro [10] = details: human, CC50 (MTT assay), HCT-8
HCoV-OC43 [11] = assay: Time of addition assay; assay type: cell-based; details: for IC50: 48 hpi
HCoV-OC43 [12] = assay: Direct virucidal effect on virus particles; details: 10^5 PFU, 1 h at room temperature; LG 0 to 300 μM, VPA 0 to 300 mM
SARS-CoV-2 = assay: Direct virucidal effect on virus particles; details: 10^5 PFU, 1 h at room temperature; LG 0 to 300 μM, VPA 0 to 300 mM
TGEV = assay: Antiviral effect against TGEV in WSL or ST cells, plaque assay on ST; assay type: cell-based, swine coronavirus TGEV; details: LG in WSL cells, VPA in ST cells
Procedure: Figure S2. […] The inhibitory effect […]
of LG or VPA was assayed on triplicate cultures of TGEV-infected WSL (wild swine macrophage cell line) or ST (swine testis) cells, respectively. After 1 h-pre-incubation with AVs, triplicate cultures were infected with the corresponding virus, at a MOI of 2 PFU/cell, in a reduced volume of medium containing the AV, for 2h, virus inoculum removed and cells washed twice with medium, before the addition of drug-containing fresh medium (supplemented with 2% FBS). Cultures were then incubated for 24 h at 37 °C; total virus (intracellular and extracellular) production was evaluated by plaque assay on triplicate cultures of ST cells. Left y-axis represents infectious virus progeny at 24 hpi and right y-axis, cell viability determined by MTT assay of each corresponding cell line. IC50 values and SI values […]
[TGEV titers (PFU/ml): 1.1±0.1 x 108 in the absence of the drugs, […]
(1 picture or pasted object on this page, not shown here)

[13] = system: SARS-CoV-2 isolate MAD6 (Wuhan-Hu-1 strain); assay: Time of addition assay; assay type: cell-based; details: for IC50: 24 hpi, read-out: IC50, SARS-CoV-2 production
HCoV-229E-GFP [14] = assay: Time of addition assay; assay type: cell-based; details: for IC50: Human coronavirus 229E, 24 hpi
HCoV-229E-GFP [15] = assay: Direct virucidal effect on virus particles; details: 10^5 PFU, 1 h at room temperature; LG 0 to 300 μM, VPA 0 to 300 mM
[16] = system: HCoV-229E, HCoV-OC43, and SARS-CoV-2; assay: Antiviral assays, summary over all tested HCoVs; assay type: cell-based, human coronaviruses
[17] = Severe acute respiratory syndrome coronavirus 2, Calu-3 2B4, specificity experiment (Fig. 3), Calu3 2B4
[18] = at 100 μM, Fig. 3, no drug 4 ± 0.9 × 10^6
[19] = at 100 μM, Fig. 3, no drug 1.8 ± 0.9 × 10^6
[20] = Betacoronavirus 1, OC43, Huh-7, read-out: IC50, virus yield, specificity experiment (Fig. 3), Huh-7, 48 hpi
[21] = Huh-7, read-out: IC50, virus yield, Huh-7, AV from 1 h before adsorption, 24 hpi, Fig. 1
[22] = Betacoronavirus 1, OC43, Huh-7, read-out: IC50, virus yield, Huh-7, AV from 1 h before adsorption, 48 hpi, Fig. 1

O=C(O[C@@H]1Cc2c(O)cc(O)cc2O[C@@H]1c1ccc(O)c(O)c1)c1cc(O)c(O)c(O)c1 [ECG, epicatechin gallate]
IC50 [1, 17]: 0.0501 mM | SARS-CoV-2 titers [1]: 6 ± 0.3 × 10^4 PFU/mL

O=C(O)c1cc(O)c(O)c(O)c1 [G, gallic acid]
inhibition of viral multiplication at nontoxic concentrations (HCoV-229E-GFP [2]; Huh-7, Fig. 3): Neither G nor PG inhibited viral multiplication | HCoV-229E-GFP titers (HCoV-229E-GFP [2]; [18]): 3.1 ± 0.2 × 10^6 PFU/mL | IC50 [1, 17]: 0.0405 mM | SARS-CoV-2 titers [1]: 7.5 ± 0.2 × 10^4 PFU/mL | inhibition of viral multiplication at nontoxic concentrations (HCoV-OC43 [3]; Huh-7, Fig. 3): Neither G nor PG inhibited viral multiplication | HCoV-OC43 titers (HCoV-OC43 [3]; [19]): 1.2 ± 0.2 × 10^6 PFU/mL

CCCCCCCCOC(=O)c1cc(O)c(O)c(O)c1 [OG, octyl gallate]
IC50 (HCoV-229E-GFP [2]; Huh-7, read-out: IC50, virus yield, specificity experiment (Fig. 3), Huh-7, 24 hpi): 3.9 µM | HCoV-229E-GFP titers (HCoV-229E-GFP [2]; [18]): 1.4 ± 0.5 × 10^3 PFU/mL | IC50 (HCoV-OC43 [3]; [20]): 2.56 µM | HCoV-OC43 titers (HCoV-OC43 [3]; [19]): 5 ± 0.01 × 10^1 PFU/mL

CCCOC(=O)c1cc(O)c(O)c(O)c1 [PG, propyl gallate]
inhibition of viral multiplication at nontoxic concentrations (HCoV-229E-GFP [2]; Huh-7, Fig. 3): Neither G nor PG inhibited viral multiplication | HCoV-229E-GFP titers (HCoV-229E-GFP [2]; [18]): 2.2 ± 0.3 × 10^6 PFU/mL | IC50 (HCoV-OC43 [3]; [20]): 22.5 µM | inhibition of viral multiplication at nontoxic concentrations (HCoV-OC43 [3]; Huh-7, Fig. 3): Neither G nor PG inhibited viral multiplication | HCoV-OC43 titers (HCoV-OC43 [3]; [19]): 1.2 ± 0.3 × 10^6 PFU/mL

CCC(CC)COC(=O)[C@H](C)N[P@](=O)(OC[C@H]1O[C@@](C#N)(c2ccc3c(N)ncnn23)[C@H](O)[C@@H]1O)Oc1ccccc1 [RDV, remdesivir]
HCoV-229E-GFP titers (HCoV-229E-GFP [4]; at 160 nM RDV): 4 ± 0.2 × 10^2 PFU/mL | HCoV-OC43 titers (HCoV-OC43 [5]; at 320 nM RDV): 1.6 ± 0.2 × 10^4 PFU/mL | selectivity index (SI=CC50/IC50) (HCoV-229E-GFP [2]): 1732 | IC50 (HCoV-229E-GFP [2]; [21]): 0.0144 ± 0.0041 µM | HCoV-229E-GFP titers (HCoV-229E-GFP [2]; at RDV 500 nM, 24 hpi, no drug 3 ± 0.5 × 10^6, Fig. 1): 6 ± 0.1 × 10^2 PFU/mL | selectivity index (SI=CC50/IC50) ([6]; SARS-CoV-2 omicron, Vero E6): 52 | IC50 ([6]; Vero E6): 0.00163 ± 0.0002 mM | SARS-CoV-2 isolate 39896362_AG titers ([6]; at RDV 32 μM): 5 ± 0.01 × 10^1 PFU/mL | selectivity index (SI=CC50/IC50) ([1]; SARS-CoV-2 Wuhan-Hu-1, Calu3 2B4): 102 | IC50 ([1]; Severe acute respiratory syndrome coronavirus 2, Calu-3 2B4, Calu3 2B4, Wuhan-Hu-1 strain, AV from 1 h before adsorption, Fig. 1): 0.00107 mM | SARS-CoV-2 isolate MAD6 titers ([1]; at RDV 20 μM, Fig. 1): 6 ± 0.3 × 10^2 PFU/mL | CC50 (in vitro [7]): 0.085 mM | CC50 (in vitro [8]): 0.109 mM | SARS-CoV-2 titers (SARS-CoV-2 (MAD6); at 8 μM RDV): 1.7 ± 0.2 × 10^3 PFU/mL | average DRI (SARS-CoV-2 (MAD6)): 4.31 | CC50 (in vitro [9]; 24 h cell incubation with AV): 0.025 mM | CC50 (in vitro [9]; 48 h cell incubation with AV): 0.02 mM | CC50 (in vitro [10]; 24 h cell incubation with AV): 0.043 mM | CC50 (in vitro [10]; 48 h cell incubation with AV): 0.038 mM | IC50 (HCoV-OC43 [3]; [22]): 0.046 µM | selectivity index (SI=CC50/IC50) (HCoV-OC43 [3]; HCoV-OC43, Huh-7): 435 | HCoV-OC43 titers (HCoV-OC43 [3]; at RDV 500 nM, 48 hpi, no drug 3.1 ± 0.9 × 10^6, Fig. 1): 6 ± 0.1 × 10^2 PFU/mL

CCCC(CCC)C(=O)O [VPA, valproic acid]
HCoV-229E-GFP titers (HCoV-229E-GFP [4]; at 32 mM VPA): 5 ± 0.3 × 10^2 PFU/mL | HCoV-OC43 titers (HCoV-OC43 [5]; at 32 mM VPA): 5 ± 0.01 × 10^1 PFU/mL | IC50 (HCoV-OC43 [11]; Betacoronavirus 1, OC43, read-out: IC50, HCoV-OC43 production, AV added 0 hpi): 9.69 mM | IC50 (HCoV-OC43 [11]; Betacoronavirus 1, OC43, read-out: IC50, HCoV-OC43 production, AV added 2 hpi): 9.49 mM | IC50 (HCoV-OC43 [11]; Betacoronavirus 1, OC43, read-out: IC50, HCoV-OC43 production, AV added −3 hpi (1 h before adsorption)): 9.87 mM | HCoV-OC43 average titers (HCoV-OC43 [11]; at 40 mM VPA, average of addition times, no drug 3.5 ± 0.5 × 10^6): 5 ± 0.01 × 10^1 PFU/mL | IC50 (HCoV-229E-GFP [2]; [21]): 9480 ± 1100 µM | HCoV-229E-GFP titers (HCoV-229E-GFP [2]; at VPA 40 mM, 24 hpi, no drug 3 ± 0.5 × 10^6, Fig. 1): 2.5 ± 0.3 × 10^2 PFU/mL | direct virucidal effect (change in virus titers) (HCoV-OC43 [12]): No decrease in virus titers | IC50 ([6]; Vero E6): 5.15 ± 0.3 mM | SARS-CoV-2 isolate 39896362_AG titers ([6]; at VPA 128 mM): 1 ± 0.1 × 10^2 PFU/mL | SARS-CoV-2 isolate MAD6 titers ([1]; at VPA 100 mM, Fig. 1): 5 ± 0.01 × 10^1 PFU/mL | direct virucidal effect (change in virus titers) (SARS-CoV-2): No decrease in virus titers | inhibition of TGEV multiplication (TGEV): inhibited the multiplication | IC50 ([13]; Severe acute respiratory syndrome coronavirus 2, AV added 0 hpi): 5.02 mM | IC50 ([13]; Severe acute respiratory syndrome coronavirus 2, AV added 2 hpi): 5.04 mM | IC50 ([13]; Severe acute respiratory syndrome coronavirus 2, AV added −2 hpi (1 h before adsorption)): 4.99 mM | SARS-CoV-2 average titers ([13]; at 100 mM VPA, average of addition times, no drug 3.4 ± 0.2 × 10^5): 5 ± 0.01 × 10^1 PFU/mL | IC50 (HCoV-229E-GFP [14]; read-out: IC50, HCoV-229E-GFP production, AV added 0 hpi): 9.64 mM | IC50 (HCoV-229E-GFP [14]; read-out: IC50, HCoV-229E-GFP production, AV added 2 hpi): 9.49 mM | IC50 (HCoV-229E-GFP [14]; read-out: IC50, HCoV-229E-GFP production, AV added −3 hpi (1 h before adsorption)): 9.48 mM | HCoV-229E-GFP average titers (HCoV-229E-GFP [14]; at 40 mM VPA, average of addition times, no drug 4 ± 0.6 × 10^6): 6 ± 2 × 10^2 PFU/mL | direct virucidal effect (change in virus titers) (HCoV-229E-GFP [15]): No decrease in virus titers | IC50 ([16]; average over all tested HCoVs, read-out: average IC50 value): 7.2 mM | IC50 ([16]; range over tested HCoVs, read-out: IC50 values, range over HCoVs): 5 to 9 mM | SARS-CoV-2 titers (SARS-CoV-2 (MAD6); at 16 mM VPA): 4 ± 0.1 × 10^4 PFU/mL | average DRI (SARS-CoV-2 (MAD6)): 5.19 | CC50 (in vitro [9]; 24 h cell incubation with AV): 70 mM | CC50 (in vitro [9]; 48 h cell incubation with AV): 66 mM | CC50 (in vitro [10]; 24 h cell incubation with AV): 95.7 mM | CC50 (in vitro [10]; 48 h cell incubation with AV): 76.2 mM | IC50 (HCoV-OC43 [3]; [22]): 9330 ± 2100 µM | HCoV-OC43 titers (HCoV-OC43 [3]; at VPA 40 mM, 48 hpi, no drug 3.1 ± 0.9 × 10^6, Fig. 1): 1.2 ± 0.1 × 10^2 PFU/mL
